This passage reports TGI results from PubChem BioAssay (NCI).

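In this assay, cells in 96-well plates receive the compound at five concentrations for 48 hours. Endpoints are linearly interpolated between the surrounding concentrations. TGI: concentration producing complete growth inhibition.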 A value given as a limit tells only on which side of the number the result lay.

Test systems include NCI/ADR-RES ovarian; 786-0 renal; CAKI-1 renal; MDA-MB-231 breast; ACHN renal; OVCAR-4 ovarian; HL-60(TB) leukemia; NCI-H460 lung; SK-MEL-5 melanoma; SF-539 CNS; MOLT-4 leukemia; MDA-N.
What all share (assay): NCI anticancer screen, dose series, 48 h

Consider `CCSc1nc(N/N=C/c2cccs2)c2cnn(CO)c2n1`, for which the TGI in the experiment on NCI/ADR-RES ovarian is 15.9 µM; in the experiment with 786-0 renal, 6.34 µM; with CAKI-1 renal, 13.7 µM; in the experiment on MDA-MB-231 breast, 54.8 µM; in the experiment on ACHN renal, 22.6 µM; in the experiment with OVCAR-4 ovarian, more than 100 µM. Besides, the TGI in the experiment with HL-60(TB) leukemia was 42.1 µM; in the experiment with NCI-H460 lung, 18.6 µM; in the experiment with SK-MEL-5 melanoma, 12.9 µM; in the experiment with SF-539 CNS, 26 µM.
With `O=S(=O)(c1ccccc1)c1ccc(-c2nc(-c3ccc4c(c3)Sc3ccccc3S4)cs2)cc1`, the TGI with MOLT-4 leukemia is more than 100 µM; with 786-0 renal, 45.1 µM; with CAKI-1 renal, more than 100 µM; in the experiment on MDA-MB-231 breast, more than 100 µM; in the experiment with ACHN renal, more than 100 µM; in the experiment with OVCAR-4 ovarian, more than 100 µM. Further, the TGI in the experiment with HL-60(TB) leukemia, in the experiment on NCI-H460 lung and in the experiment on SF-539 CNS was more than 100 µM in each case.
For the compound `COc1cc(S(=O)(=O)Nc2ccc(-c3csc(N4C(=O)CSC4c4ccccc4O)n3)cc2)ccc1Cl` (configuration not stated), the TGI in the experiment with MOLT-4 leukemia, with NCI/ADR-RES ovarian, in the experiment on 786-0 renal, in the experiment on CAKI-1 renal, in the experiment on ACHN renal and in the experiment on OVCAR-4 ovarian was more than 100 µM throughout. Moreover, the TGI in the experiment with HL-60(TB) leukemia is 49.8 µM; in the experiment on NCI-H460 lung, 52.8 µM; in the experiment on MDA-N, more than 100 µM; in the experiment on SK-MEL-5 melanoma, more than 100 µM; in the experiment on SF-539 CNS it was more than 100 µM.
For the compound `CC(C)(C)OC(=O)N1N=CCC1c1ccccc1` (configuration not stated), the TGI with NCI/ADR-RES ovarian, in the experiment on 786-0 renal, in the experiment with CAKI-1 renal, with ACHN renal, with HL-60(TB) leukemia and in the experiment on NCI-H460 lung was more than 100 µM each time. Also, the TGI with SK-MEL-5 melanoma and in the experiment with SF-539 CNS was more than 100 µM throughout.
With `O=c1[nH]cnc2c1cnn2Cc1cnnn1COCCO`, the TGI in the experiment with MOLT-4 leukemia, in the experiment on NCI/ADR-RES ovarian, in the experiment on 786-0 renal, with CAKI-1 renal, in the experiment on MDA-MB-231 breast and in the experiment with ACHN renal was more than 100 µM in each case. Besides, the TGI in the experiment with OVCAR-4 ovarian, with HL-60(TB) leukemia, in the experiment on NCI-H460 lung, in the experiment on SK-MEL-5 melanoma and with SF-539 CNS was more than 100 µM throughout.
For `CC#CCCCC1(C)CCNC1=S` (configuration not stated), the TGI in the experiment with MOLT-4 leukemia, in the experiment on 786-0 renal, with ACHN renal, in the experiment on OVCAR-4 ovarian, in the experiment with HL-60(TB) leukemia and with NCI-H460 lung was more than 10 µM in each case. For the same compound, the TGI in the experiment on MDA-N and in the experiment with SF-539 CNS was more than 10 µM throughout.
Regarding `O=C(CC(C(=O)c1cccs1)c1ccsc1)c1ccc(Cl)s1` (configuration not stated), the TGI in the experiment with MOLT-4 leukemia, with NCI/ADR-RES ovarian, in the experiment on 786-0 renal, with CAKI-1 renal, with MDA-MB-231 breast and in the experiment on ACHN renal was more than 100 µM each time. For the same compound, the TGI with OVCAR-4 ovarian, in the experiment with HL-60(TB) leukemia, with NCI-H460 lung, in the experiment with SK-MEL-5 melanoma and in the experiment on SF-539 CNS was more than 100 µM each time.
For `COc1ccc(Nc2nc(N)c(C(=O)c3ccc(Cl)cc3)s2)cc1`, the TGI with NCI/ADR-RES ovarian is 29.7 µM; in the experiment with 786-0 renal, 11.2 µM; in the experiment on CAKI-1 renal, 13.4 µM; with MDA-MB-231 breast, 6.13 µM; in the experiment on ACHN renal, 31.5 µM; in the experiment on OVCAR-4 ovarian it was 2.65 µM. In addition, the TGI in the experiment with HL-60(TB) leukemia was less than 0.0331 µM; in the experiment on NCI-H460 lung, 4.62 µM; with SK-MEL-5 melanoma, 2.19 µM; with SF-539 CNS it was 0.18 µM.
Take `COc1ccc2[nH]c3c(c2c1)CC(=O)N1CCC[C@H](C1)CC31OCCCO1`: the TGI in the experiment with NCI/ADR-RES ovarian, in the experiment on 786-0 renal, with CAKI-1 renal, in the experiment with MDA-MB-231 breast, in the experiment with ACHN renal and in the experiment with OVCAR-4 ovarian was more than 100 µM throughout. Further, the TGI in the experiment with NCI-H460 lung, in the experiment on MDA-N and in the experiment with SK-MEL-5 melanoma was more than 100 µM throughout.
Consider `CC(=O)Nc1ccc(/C=c2\sc3nnc(-c4cccnc4)n3c2=O)cc1`, for which the TGI with MOLT-4 leukemia turned out to be 64.3 µM; in the experiment with 786-0 renal, 31.4 µM; in the experiment with CAKI-1 renal, 35.3 µM; in the experiment with ACHN renal, 26.9 µM; with OVCAR-4 ovarian it was 30.7 µM; in the experiment with HL-60(TB) leukemia it was 42.9 µM. The TGI in the experiment with NCI-H460 lung is 30.9 µM; with SK-MEL-5 melanoma, 37.8 µM; in the experiment on SF-539 CNS it was 33.3 µM.
With `CCN(CC)CCC1CCCCN1CC(=O)N1c2cc(Cl)ccc2NC(=O)CC1C` (configuration not stated), the TGI in the experiment with MOLT-4 leukemia, with 786-0 renal, in the experiment on CAKI-1 renal, in the experiment with MDA-MB-231 breast, in the experiment on ACHN renal and in the experiment on OVCAR-4 ovarian was more than 100 µM in each case. The TGI with HL-60(TB) leukemia, in the experiment with NCI-H460 lung, in the experiment with MDA-N, in the experiment on SK-MEL-5 melanoma and in the experiment on SF-539 CNS was more than 100 µM each time.
